Assay results published in patent publication EP4417602A1, “SUBSTITUTED PYRAZOLE CARBOXAMIDES, SALTS THEREOF AND THEIR USE AS HERBICIDALLY ACTIVE SUBSTANCES” (Bayer AG, priority 2023, dated 2024).

Columns and labels:
[1] = test system: POAAN; assay: B. Herbicidal post-emergence action on harmful plants (Tables B); format: in vivo, Poa annua; details: application rate 1280 g/ha; Table B7a
Procedure, shortened: (§1)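 Greenhouse weeds grown in sandy loam were sprayed post-emergence at the one-leaf stage, 2-3 weeks after sowing. Compounds were applied as WP or EC in water with 0.5% additive at 600 L/ha, at 1280 g/ha or below. Visual damage was rated after about 3 weeks versus untreated plants (0-100%).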

[2] = test system: STEME; assay: as above; format: in vivo, Stellaria media; details: application rate 1280 g/ha; Table B6
Procedure, shortened: as §1

[3] = test system: POAAN; assay: A. Herbicidal pre-emergence action on harmful plants (Tables A); format: in vivo, Poa annua
Procedure, shortened: (§2)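 Values are visual percent damage relative to untreated controls, scored ca. 3 weeks after the compound was sprayed on the covering soil of sown pots (sandy loam) at rates up to 1280 g/ha, formulated as WP or EC with 0.5% additive.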

[4] = test system: MATIN; assay: as above; format: in vivo, Matricaria inodora; details: visual grading after ca. 3 weeks vs untreated controls, 100% = plants have died off, 0% = as control plants
Procedure, shortened: as §2

[5] = test system: AMARE; assay: B. Herbicidal post-emergence action on harmful plants (Tables B); format: in vivo, Amaranthus retroflexus; details: application rate 1280 g/ha; Table B8
Experimental: (§3) Seeds of mono- and dicotyledonous weed plants were placed in plastic pots in sandy loam soil (doubly sown with in each case one species of mono- or dicotyledonous weed plants per pot), covered with soil and cultivated in a greenhouse under controlled growth conditions. 2 to 3 weeks after sowing, the test plants were treated at the one-leaf stage. The compounds of the invention, formulated in the form of wettable powders (WP) or as emulsion concentrates (EC), were applied onto the green parts of the plants as aqueous suspension or emulsion with addition of 0.5% additive at a water application rate of 600 liters per hectare (converted). After the test plants had been kept in the greenhouse under optimum growth conditions for about 3 weeks, the activity of the preparations was rated visually in comparison to untreated controls. For example, 100% activity = the plants have died, 0% activity = like control plants. Tables B1 to B12, below, show the effects of selected compounds of the general formula (I) according to table 1 on various harmful plants and an application rate corresponding to 1280 g/ha or below obtained by the experimental procedure mentioned above. Table B1a: post-emergence activity at 1280g/ha against ABUTH in %

[6] = test system: STEME; assay: A. Herbicidal pre-emergence action on harmful plants (Tables A); format: in vivo, Stellaria media; details: visual grading after ca. 3 weeks vs untreated controls, 100% = plants have died off, 0% = as control plants
Procedure, shortened: as §2

[7] = test system: KCHSC; assay: B. Herbicidal post-emergence action on harmful plants (Tables B); format: in vivo, Kochia scoparia; details: application rate 1280 g/ha; Table B10a
Experimental: as §3

[8] = test system: SETVI; assay: as above; format: in vivo, Setaria viridis; details: application rate 1280 g/ha; Table B5
Procedure, shortened: as §1

[9] = test system: LOLRI; assay: A. Herbicidal pre-emergence action on harmful plants (Tables A); format: in vivo, Lolium rigidum; details: visual grading after ca. 3 weeks vs untreated controls, 100% = plants have died off, 0% = as control plants
Procedure, shortened: as §2

[10] = test system: DIGSA; assay: as above; format: in vivo, Digitaria sanguinalis
Procedure, shortened: as §2

[11] = test system: ABUTH; assay: as above; format: in vivo, Abutilon theophrasti; details: application rate 1280 g/ha; visual grading after ca. 3 weeks vs untreated controls; 100% = plants have died off, 0% = as control plants
Text: (§4) Seeds of mono- and dicotyledonous weed plants were sown in plastic pots (double sowings with one species of mono- and one species of dicotyledonous weed plants per pot), in sandy loam, and covered with soil. The compounds according to the invention, formulated in the form of wettable powders (WP) or as emulsifiable concentrates (EC), were applied to the surface of the covering soil as aqueous suspension or emulsion, with the addition of 0.5% of an additive, at an application rate of 6001 of water per hectare (converted). Following treatment, the pots were placed in a greenhouse and kept under optimum growth conditions for the test plants. The visual grading of the damage to the test plants was carried out after ca. 3 weeks in comparison to untreated controls (herbicidal effect in percent (%): 100% effect = plants have died off, 0% effect = as control plants). Tables A1 to A12, below, show the effects of selected compounds of the general formula (I) according to table 1 on various harmful plants and an application rate corresponding to 1280 g/ha or below obtained by the experimental procedure mentioned above. Table A1: pre-emergence activity at 1280g/ha against ABUTH in %

[12] = test system: SETVI; assay: as above; format: in vivo, Setaria viridis; details: visual grading after ca. 3 weeks vs untreated controls, 100% = plants have died off, 0% = as control plants
Procedure, shortened: as §2

[13] = test system: AMARE; assay: as above; format: in vivo, Amaranthus retroflexus
Procedure, shortened: as §2

[14] = test system: ECHCG; assay: as above; format: in vivo, Echinochloa crus-galli; details: visual grading after ca. 3 weeks vs untreated controls, 100% = plants have died off, 0% = as control plants
Procedure, shortened: as §2

[15] = test system: VERPE; assay: B. Herbicidal post-emergence action on harmful plants (Tables B); format: in vivo, Veronica persica; details: application rate 1280 g/ha; Table B11a
Procedure, shortened: as §1

[16] = test system: KCHSC; assay: A. Herbicidal pre-emergence action on harmful plants (Tables A); format: in vivo, Kochia scoparia; details: application rate 1280 g/ha; visual grading after ca. 3 weeks vs untreated controls; 100% = plants have died off, 0% = as control plants
Text: as §4

[17] = application rate 80 g/ha, Table A7c
[18] = application rate 320 g/ha, Table A7b
[19] = application rate 1280 g/ha, visual grading after ca. 3 weeks vs untreated controls, 100% = plants have died off, 0% = as control plants
[20] = application rate 320 g/ha, Table A12b
[21] = application rate 1280 g/ha, Table A12a

| SMILES | pre-emergence activity against POAAN [3, 17] [%] | pre-emergence activity against POAAN [3, 18] [%] | pre-emergence activity against POAAN [3, 19] [%] | pre-emergence activity against MATIN ([4]; application rate 1280 g/ha) [%] | pre-emergence activity against STEME ([6]; application rate 320 g/ha) [%] | pre-emergence activity against STEME ([6]; application rate 1280 g/ha) [%] | pre-emergence activity against DIGSA [10, 20] [%] | pre-emergence activity against DIGSA [10, 21] [%] | pre-emergence activity against SETVI ([12]; application rate 80 g/ha) [%] | pre-emergence activity against SETVI ([12]; application rate 320 g/ha) [%] | pre-emergence activity against SETVI ([12]; application rate 1280 g/ha) [%] | pre-emergence activity against AMARE [13, 19] [%] | also measured |
| --- | --- | --- | --- | --- | --- | --- | --- | --- | --- | --- | --- | --- | --- |
| Cn1ncc(C(=O)N2CCCC2Cc2ccccc2F)c1COCC(F)(F)F (single isomer, unassigned) [Example I-122] | 90 | 100 | 100 | 100 | 90 | 100 | 90 | 100 | 90 | 90 | 100 | 100 | post-emergence activity against POAAN [1]: 90%; post-emergence activity against STEME [2]: 90%; post-emergence activity against AMARE [5]: 90%; post-emergence activity against KCHSC [7]: 90%; post-emergence activity against SETVI [8]: 90%; pre-emergence activity against LOLRI ([9]; application rate 320 g/ha): 100%; pre-emergence activity against LOLRI ([9]; application rate 1280 g/ha): 100%; pre-emergence activity against DIGSA ([10]; application rate 80 g/ha, Table A12c): 90%; pre-emergence activity against ABUTH [11]: 100%; pre-emergence activity against ECHCG ([14]; application rate 80 g/ha): 90%; pre-emergence activity against ECHCG ([14]; application rate 320 g/ha): 100%; pre-emergence activity against ECHCG ([14]; application rate 1280 g/ha): 100% |
| COCc1nn(Cc2ccccc2)cc1C(=O)N1CCCC1Cc1ccccc1F (racemic) [Example I-024] | 90 | 90 | 100 | 90 | 90 | 100 | 90 | 90 | 90 | 90 | 90 | 90 | post-emergence activity against VERPE [15]: 90%; pre-emergence activity against KCHSC [16]: 90%; pre-emergence activity against MATIN ([4]; application rate 80 g/ha): 90%; pre-emergence activity against MATIN ([4]; application rate 320 g/ha): 90%; pre-emergence activity against AMARE ([13]; application rate 320 g/ha, Table A8b): 90% |
